Legend:
IRAK4 = IRAK4 (Homo sapiens (Human), UniProt Q9NWZ3); test: IRAK4 Inhibition Assay; format: biochemical; settings: ATP 500 μM; IRAK4 0.6 nM; 60 min room temperature
Outline: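 Phosphorylated and unphosphorylated fluorescent substrate were resolved by microfluidic electrophoresis after termination with 35 mM EDTA. The room-temperature kinase reaction lasted 60 min after IRAK4, substrates and test compound were combined; vehicle-only defined 0% and no-enzyme 100% inhibition.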

JAK3 kinase = JAK3 kinase (Homo sapiens (Human), UniProt P52333); test: JAK3 Homogeneous Time Resolved Fluorescence (HTRF) Assay; format: binding; settings: for IC50: competition binding with fluorescein-labeled ATP competitive probe; for Ratio of JAK3 IC50 to IRAK4 IC50: selectivity for IRAK4 over JAK3
Outline: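 IC50 reflects displacement of a fluorescein-labeled ATP-site probe (at its Kd) from 1 nM tagged JAK3, detected via 0.2 nM Tb anti-His or anti-GST antibody. One-hour incubation; 495 and 520 nm emission ratios, background-subtracted, normalized to maximum signal; 11-point percent inhibition, 4-parameter logistic.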

Sequence of JAK3 kinase (P52333 whole entry): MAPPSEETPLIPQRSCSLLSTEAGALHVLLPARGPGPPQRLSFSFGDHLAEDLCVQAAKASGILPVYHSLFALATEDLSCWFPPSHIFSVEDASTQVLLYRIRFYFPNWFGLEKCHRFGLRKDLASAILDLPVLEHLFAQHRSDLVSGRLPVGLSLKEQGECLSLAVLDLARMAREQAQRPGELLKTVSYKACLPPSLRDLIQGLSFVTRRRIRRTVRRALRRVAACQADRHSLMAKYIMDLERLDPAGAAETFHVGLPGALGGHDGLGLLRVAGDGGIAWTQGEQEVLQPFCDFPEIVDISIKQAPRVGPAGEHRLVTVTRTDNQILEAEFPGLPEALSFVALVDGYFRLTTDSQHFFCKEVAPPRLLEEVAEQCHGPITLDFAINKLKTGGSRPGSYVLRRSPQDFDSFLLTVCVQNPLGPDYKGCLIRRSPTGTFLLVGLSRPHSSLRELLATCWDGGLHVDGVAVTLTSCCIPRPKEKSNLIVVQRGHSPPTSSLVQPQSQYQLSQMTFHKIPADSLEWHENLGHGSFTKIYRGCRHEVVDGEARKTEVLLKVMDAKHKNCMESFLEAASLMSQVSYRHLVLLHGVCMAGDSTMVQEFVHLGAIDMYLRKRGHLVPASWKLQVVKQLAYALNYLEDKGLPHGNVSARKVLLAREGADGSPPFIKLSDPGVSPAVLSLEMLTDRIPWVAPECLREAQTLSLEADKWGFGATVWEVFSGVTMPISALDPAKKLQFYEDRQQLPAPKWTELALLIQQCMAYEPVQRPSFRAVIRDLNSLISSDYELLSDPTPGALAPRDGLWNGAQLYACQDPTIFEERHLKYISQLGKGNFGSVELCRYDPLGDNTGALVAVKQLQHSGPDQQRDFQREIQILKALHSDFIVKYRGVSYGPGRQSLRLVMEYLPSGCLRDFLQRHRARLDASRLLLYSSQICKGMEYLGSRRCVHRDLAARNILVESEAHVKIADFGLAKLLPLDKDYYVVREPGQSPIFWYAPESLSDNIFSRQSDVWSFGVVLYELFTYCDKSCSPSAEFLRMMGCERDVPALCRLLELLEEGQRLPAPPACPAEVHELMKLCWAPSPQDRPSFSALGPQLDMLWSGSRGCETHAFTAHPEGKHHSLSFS
Sequence of IRAK4 (Q9NWZ3 whole entry, species assumed): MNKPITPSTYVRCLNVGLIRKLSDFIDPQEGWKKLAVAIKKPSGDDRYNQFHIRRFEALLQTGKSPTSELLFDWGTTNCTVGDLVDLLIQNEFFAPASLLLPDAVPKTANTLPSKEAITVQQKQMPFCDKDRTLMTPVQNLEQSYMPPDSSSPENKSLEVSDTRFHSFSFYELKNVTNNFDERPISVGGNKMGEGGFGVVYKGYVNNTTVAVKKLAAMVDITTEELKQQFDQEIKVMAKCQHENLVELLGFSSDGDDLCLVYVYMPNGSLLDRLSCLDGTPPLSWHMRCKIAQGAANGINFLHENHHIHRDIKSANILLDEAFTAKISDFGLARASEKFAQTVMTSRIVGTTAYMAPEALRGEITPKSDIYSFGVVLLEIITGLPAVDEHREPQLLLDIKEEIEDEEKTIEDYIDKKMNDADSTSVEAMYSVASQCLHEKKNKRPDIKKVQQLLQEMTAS

In the case of `CC(C)Nc1c(C(=O)NC[C@@H](F)C(C)(C)O)cnc2cc(-c3ncco3)nn12` [Example 134, (R)—N-(2-fluoro-3-hydroxy-3-methylbutyl)-7-(isopropylamino)-2-(oxazol-2-yl)pyrazolo[1,5-a]pyrimidine-6-carboxamide], the IC50 (IRAK4) is reported as 220 nM, the IC50 (JAK3 kinase) is reported as > 50 µM and the “Ratio of JAK3 IC50 to IRAK4 IC50” value (JAK3 kinase) is reported as >227.

In the case of `CC(C)Nc1c(C(=O)NC[C@@H](F)C(C)(C)O)cnn2cc(-c3ccc(C#N)nc3)nc12` [Example 101, (R)-2-(6-cyanopyridin-3-yl)-N-(2-fluoro-3-hydroxy-3-methylbutyl)-8-(isopropylamino)imidazo[1,2-b]pyridazine-7-carboxamide], the IC50 (IRAK4) is reported as 70 nM, the IC50 (JAK3 kinase) is reported as > 50 µM and the “Ratio of JAK3 IC50 to IRAK4 IC50” value (JAK3 kinase) is reported as >714.

`CC(C)Nc1c(C(=O)NC[C@@H](F)C(C)(C)O)cnc2cc(-c3cccc(N)c3)nn12` [Example 157, (R)-2-(3-aminophenyl)-N-(2-fluoro-3-hydroxy-3-methylbutyl)-7-(isopropylamino) pyrazolo[1,5-a]pyrimidine-6-carboxamide] was tested, and the IC50 (IRAK4) was 31 nM, the IC50 (JAK3 kinase) was > 50 µM and the “Ratio of JAK3 IC50 to IRAK4 IC50” value (JAK3 kinase) was >1613.

In the case of `CC(C)Nc1c(C(=O)NC[C@@H](F)C(C)(C)O)cnc2cc(-c3cc[nH]c(=O)c3)nn12` [Example 154, (R)—N-(2-fluoro-3-hydroxy-3-methylbutyl)-7-(isopropylamino)-2-(2-oxo-1,2-dihydropyridin-4-yl)pyrazolo[1,5-a]pyrimidine-6-carboxamide], the IC50 (IRAK4) is reported as 93 nM, the IC50 (JAK3 kinase) is reported as > 50 µM and the “Ratio of JAK3 IC50 to IRAK4 IC50” value (JAK3 kinase) is reported as >538.

For `CC(C)Nc1c(C(=O)NC[C@@H](F)C(C)(C)O)cnc2cc(-c3cccnc3F)nn12` [Example 125, (R)—N-(2-fluoro-3-hydroxy-3-methylbutyl)-2-(2-fluoropyridin-3-yl)-7-(isopropylamino)pyrazolo[1,5-a] pyrimidine-6-carboxamide], the IC50 (IRAK4) was 48 nM, the IC50 (JAK3 kinase) was > 10 µM and the “Ratio of JAK3 IC50 to IRAK4 IC50” value (JAK3 kinase) was >208.

With `CC(C)Nc1c(C(=O)NC[C@@H](F)C(C)(C)O)cnn2cc(Nc3ncc(C#N)cc3Cl)cc12` [Example 42, (R)-6-((3-chloro-5-cyanopyridin-2-yl)amino)-N-(2-fluoro-3-hydroxy-3-methylbutyl)-4-(isopropylamino)pyrrolo[1,2-b]pyridazine-3-carboxamide] the IC50 (IRAK4) was 26 nM, the IC50 (JAK3 kinase) was > 50 µM and the “Ratio of JAK3 IC50 to IRAK4 IC50” value (JAK3 kinase) was >1923.

`CC(C)Nc1c(C(=O)NC[C@@H](F)C(C)(C)O)cnc2cc(-c3cncc(C#N)c3)nn12` [Example 124, (R)-2-(5-cyanopyridin-3-yl)-N-(2-fluoro-3-hydroxy-3-methylbutyl)-7-(isopropylamino) pyrazolo[1,5-a]pyrimidine-6-carboxamide] was tested, and the IC50 (IRAK4) was 360 nM, the IC50 (JAK3 kinase) was > 50 µM and the “Ratio of JAK3 IC50 to IRAK4 IC50” value (JAK3 kinase) was >139.

`CC(C)(O)[C@H](F)CNC(=O)c1cnn2cc(-c3ccc(C#N)c(F)c3)cc2c1NC1CCOCC1` [Example 12, (R)-6-(4-cyano-3-fluorophenyl)-N-(2-fluoro-3-hydroxy-3-methylbutyl)-4-((tetrahydro-2H-pyran-4-yl)amino)pyrrolo[1,2-b]pyridazine-3-carboxamide] was tested, and the IC50 (IRAK4) was 250 nM, the IC50 (JAK3 kinase) was > 50 µM and the “Ratio of JAK3 IC50 to IRAK4 IC50” value (JAK3 kinase) was >200.

For `CC(C)Nc1c(C(=O)NC[C@@H](F)C(C)(C)O)cnc2cc(-c3cncnc3)nn12` [Example 127, (R)—N-(2-fluoro-3-hydroxy-3-methylbutyl)-7-(isopropylamino)-2-(pyrimidin-5-yl)pyrazolo[1,5-a]pyrimidine-6-carboxamide], the IC50 (IRAK4) was 170 nM, the IC50 (JAK3 kinase) was > 10 µM and the “Ratio of JAK3 IC50 to IRAK4 IC50” value (JAK3 kinase) was >59.

For `CC(C)Nc1c(C(=O)NC[C@@H](F)C(C)(C)O)cnc2cc(-c3ccccn3)nn12` [Example 152, (R)—N-(2-fluoro-3-hydroxy-3-methylbutyl)-7-(isopropylamino)-2-(pyridin-2-yl)pyrazolo[1,5-a]pyrimidine-6-carboxamide], the IC50 (IRAK4) was 160 nM, the IC50 (JAK3 kinase) was > 10 µM and the “Ratio of JAK3 IC50 to IRAK4 IC50” value (JAK3 kinase) was >63.

`CC(C)Nc1c(C(=O)NC[C@@H](F)C(C)(C)O)cnn2cccc12` [Example 96, (R)—N-(2-fluoro-3-hydroxy-3-methylbutyl)-4-(isopropylamino)pyrrolo[1,2-b]pyridazine-3-carboxamide] was tested, and the IC50 (IRAK4) was 740 nM, the IC50 (JAK3 kinase) was > 50 µM and the “Ratio of JAK3 IC50 to IRAK4 IC50” value (JAK3 kinase) was >68.

`CC(C)Nc1c(C(=O)NC[C@@H](F)C(C)(C)O)cnc2cc(-c3cncc(F)c3)nn12` [Example 130, (R)—N-(2-fluoro-3-hydroxy-3-methylbutyl)-2-(5-fluoropyridin-3-yl)-7-(isopropylamino) pyrazolo[1,5-a]pyrimidine-6-carboxamide] was tested, and the IC50 (IRAK4) was 110 nM, the IC50 (JAK3 kinase) was > 10 µM and the “Ratio of JAK3 IC50 to IRAK4 IC50” value (JAK3 kinase) was >91.

With `Cc1cc(F)ncc1-c1cc2c(NC(C)C)c(C(=O)NC3CCN(S(C)(=O)=O)CC3)cnn2c1` [Example 86, 6-(6-fluoro-4-methylpyridin-3-yl)-4-(isopropylamino)-N-(1-(methylsulfonyl)piperidin-4-yl)pyrrolo[1,2-b]pyridazine-3-carboxamide] the IC50 (IRAK4) was 46 nM, the IC50 (JAK3 kinase) was > 50 µM and the “Ratio of JAK3 IC50 to IRAK4 IC50” value (JAK3 kinase) was >1087.

In the case of `CC(C)(O)[C@H](F)CNC(=O)c1cnc2cc(-c3cccnc3)nn2c1N[C@H]1CC[C@H](C(C)(C)O)CC1` [Example 159, N—((R)-2-fluoro-3-hydroxy-3-methylbutyl)-7-(((1r,4R)-4-(2-hydroxypropan-2-yl)cyclohexyl)amino)-2-(pyridin-3-yl)pyrazolo[1,5-a]pyrimidine-6-carboxamide], the IC50 (IRAK4) is reported as 53 nM, the IC50 (JAK3 kinase) is reported as > 50 µM and the “Ratio of JAK3 IC50 to IRAK4 IC50” value (JAK3 kinase) is reported as >943.

`COc1cccc(-c2cc3ncc(C(=O)NC[C@@H](F)C(C)(C)O)c(NC(C)C)n3n2)n1` [Example 144, (R)—N-(2-fluoro-3-hydroxy-3-methylbutyl)-7-(isopropylamino)-2-(6-methoxypyridin-2-yl)pyrazolo[1,5-a] pyrimidine-6-carboxamide] was tested, and the IC50 (IRAK4) was 1400 nM, the IC50 (JAK3 kinase) was > 50 µM and the “Ratio of JAK3 IC50 to IRAK4 IC50” value (JAK3 kinase) was >36.

In the case of `CC(C)Nc1c(C(=O)NC[C@@H](F)C(C)(C)O)cnn2cc(-c3cncs3)nc12` [Example 102, (R)—N-(2-fluoro-3-hydroxy-3-methylbutyl)-8-(isopropylamino)-2-(thiazol-5-yl)imidazo[1,2-b]pyridazine-7-carboxamide], the IC50 (IRAK4) is reported as 22 nM, the IC50 (JAK3 kinase) is reported as > 50 µM and the “Ratio of JAK3 IC50 to IRAK4 IC50” value (JAK3 kinase) is reported as >2273.

In the case of `CC(C)(O)[C@H](F)CNC(=O)c1cnn2cc(-c3nccs3)cc2c1NC1CCOCC1` [Example 19, (R)—N-(2-fluoro-3-hydroxy-3-methylbutyl)-4-((tetrahydro-2H-pyran-4-yl)amino)-6-(thiazol-2-yl) pyrrolo[1,2-b]pyridazine-3-carboxamide], the IC50 (IRAK4) is reported as 15 nM, the IC50 (JAK3 kinase) is reported as > 10 µM and the “Ratio of JAK3 IC50 to IRAK4 IC50” value (JAK3 kinase) is reported as >667.

`CC(C)Nc1c(C(=O)NC[C@@H](F)C(C)(C)O)cnn2cc(C#N)cc12` [Example 35, (R)-6-cyano-N-(2-fluoro-3-hydroxy-3-methylbutyl)-4-(isopropylamino)pyrrolo[1,2-b]pyridazine-3-carboxamide] was tested, and the IC50 (IRAK4) was 190 nM, the IC50 (JAK3 kinase) was > 50 µM and the “Ratio of JAK3 IC50 to IRAK4 IC50” value (JAK3 kinase) was >263.

In the case of `CC(C)(O)[C@H](F)CNC(=O)c1cnc2cc(-c3cccnc3)nn2c1N[C@H]1CCN(c2cnc(F)nc2)C1` [Example 138, N—((R)-2-fluoro-3-hydroxy-3-methylbutyl)-7-(((S)-1-(2-fluoropyrimidin-5-yl)pyrrolidin-3-yl)amino)-2-(pyridin-3-yl) pyrazolo[1,5-a]pyrimidine-6-carboxamide], the IC50 (IRAK4) is reported as 640 nM, the IC50 (JAK3 kinase) is reported as > 10 µM and the “Ratio of JAK3 IC50 to IRAK4 IC50” value (JAK3 kinase) is reported as >16.

From patent publication US12570659B2, “Bicyclic heteroaryl compounds useful as IRAK4 inhibitors” (BRISTOL-MYERS SQUIBB COMPANY, priority 2019, dated 2026)
